Assay results reported in PubChem BioAssay (NCI).
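The compound was tested at five concentrations on cells cultured in 96-well plates, with a 48-hour exposure period. GI50: concentration for 50% inhibition of growth. TGI denotes the concentration required for complete inhibition of growth.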

How the values were obtained:
Assay in all cases: NCI-60 cell line screen, 48 h
[1] = test system: 786-0 renal
[2] = test system: A498 renal
[3] = test system: A549 NSCLC
[4] = test system: ACHN renal
[5] = test system: BT-549 breast
[6] = test system: CAKI-1 renal
[7] = test system: CCRF-CEM leukemia
[8] = test system: COLO 205 colon
[9] = test system: DU-145 prostate
[10] = test system: EKVX NSCLC
[11] = test system: HCC-2998 colon
[12] = test system: HCT-116 colon
[13] = test system: HCT-15 colon
[14] = test system: HL-60(TB) leukemia
[15] = test system: HOP-62 NSCLC
[16] = test system: HS 578T breast
[17] = test system: HT29 colon
[18] = test system: IGROV1 ovarian
[19] = test system: K-562 leukemia
[20] = test system: KM12 colon
[21] = test system: LOX IMVI melanoma
[22] = test system: M14 melanoma
[23] = test system: MALME-3M melanoma
[24] = test system: MCF7 breast
[25] = test system: MDA-MB-231 breast
[26] = test system: MDA-MB-435
[27] = test system: MDA-MB-468 breast
[28] = test system: MOLT-4 leukemia
[29] = test system: NCI-H226 lung
[30] = test system: NCI-H23 lung
[31] = test system: NCI-H460 lung
[32] = test system: NCI-H522 lung
[33] = test system: NCI/ADR-RES ovarian
[34] = test system: OVCAR-3 ovarian
[35] = test system: OVCAR-4 ovarian
[36] = test system: OVCAR-5 ovarian
[37] = test system: OVCAR-8 ovarian
[38] = test system: PC-3 prostate
[39] = test system: RPMI-8226 leukemia
[40] = test system: RXF 393 renal
[41] = test system: SF-268 CNS
[42] = test system: SF-295 CNS
[43] = test system: SF-539 CNS
[44] = test system: SK-MEL-2 melanoma
[45] = test system: SK-MEL-28 melanoma
[46] = test system: SK-MEL-5 melanoma
[47] = test system: SK-OV-3 ovarian
[48] = test system: SN12C renal
[49] = test system: SNB-19 CNS
[50] = test system: SR leukemia
[51] = test system: SW-620 colon
[52] = test system: T-47D breast
[53] = test system: TK-10 renal
[54] = test system: U251 CNS
[55] = test system: UACC-257 melanoma
[56] = test system: UACC-62 melanoma
[57] = test system: UO-31 renal
[58] = test system: HOP-92 NSCLC

COc1ccc(C(=O)/C=C/c2cccnc2)cc1S(N)(=O)=O showed a GI50 [1] of 11.2 µM, a TGI [1] of 24.1 µM and a GI50 [2] of 21.7 µM. The TGI [2] was 53.6 µM, the GI50 [3] was 13.8 µM and the TGI [3] was 33.9 µM. It also gave a GI50 [4] of 13.5 µM, a TGI [4] of 25.5 µM and a GI50 [5] of 12.9 µM. It also gave a TGI [5] of 25.4 µM, a GI50 [6] of 12.7 µM and a TGI [6] of 24.9 µM. For the same compound, the GI50 [7] was 12.6 µM, the TGI [7] was 33.2 µM and the GI50 [8] was 13.7 µM. It also gave a TGI [8] of 29.8 µM, a GI50 [9] of 11.2 µM and a TGI [9] of 22.6 µM. It also gave a GI50 [10] of 11.9 µM, a TGI [10] of 24.2 µM and a GI50 [11] of 13.9 µM. The TGI [11] was 26.1 µM, the GI50 [12] was 3.18 µM and the TGI [12] was 11.7 µM. It also gave a GI50 [13] of 4.18 µM, a TGI [13] of 16.7 µM and a GI50 [14] of 11 µM. For the same compound, the TGI [14] was 32.7 µM, the GI50 [15] was 15.6 µM and the TGI [15] was 33 µM. It also gave a GI50 [16] of 21.1 µM, a TGI [16] of 65.6 µM and a GI50 [17] of 5.49 µM. For the same compound, the TGI [17] was 21.2 µM, the GI50 [18] was 12.4 µM and the TGI [18] was 24.7 µM. The GI50 [19] was 2.92 µM, the TGI [19] was 20.5 µM and the GI50 [20] was 3.8 µM. For the same compound, the TGI [20] was 14.4 µM, the GI50 [21] was 4.63 µM and the TGI [21] was 16.1 µM. For the same compound, the GI50 [22] was 14.3 µM, the TGI [22] was 29 µM and the GI50 [23] was 14.2 µM. The TGI [23] was 27.1 µM, the GI50 [24] was 4.87 µM and the TGI [24] was 18.5 µM. It also gave a GI50 [25] of 13.4 µM, a TGI [25] of 25.5 µM and a GI50 [26] of 14.4 µM. For the same compound, the TGI [26] was 31.1 µM, the GI50 [27] was 7.1 µM and the TGI [27] was 20.1 µM. The GI50 [28] was 3.5 µM, the TGI [28] was 15.1 µM and the GI50 [29] was 14.4 µM. The TGI [29] was 32.3 µM, the GI50 [30] was 12 µM and the TGI [30] was 24.1 µM. The GI50 [31] was 9.17 µM, the TGI [31] was 44.9 µM and the GI50 [32] was 10.5 µM. For the same compound, the TGI [32] was 24.1 µM, the GI50 [33] was 23.4 µM and the TGI [33] was 90.2 µM. For the same compound, the GI50 [34] was 10.3 µM, the TGI [34] was 21.6 µM and the GI50 [35] was 16.3 µM. For the same compound, the TGI [35] was 36 µM, the GI50 [36] was 11.9 µM and the TGI [36] was 23.5 µM. For the same compound, the GI50 [37] was 15.1 µM, the TGI [37] was 35.6 µM and the GI50 [38] was 16.5 µM. It also gave a TGI [38] of 33.2 µM, a GI50 [39] of 9.08 µM and a TGI [39] of 28.2 µM. The GI50 [40] was 12.3 µM, the TGI [40] was 24.7 µM and the GI50 [41] was 13.6 µM. For the same compound, the TGI [41] was 31.6 µM, the GI50 [42] was 12.8 µM and the TGI [42] was 25.2 µM. The GI50 [43] was 4.32 µM, the TGI [43] was 15.7 µM and the GI50 [44] was 19.4 µM. It also gave a TGI [44] of 49.7 µM, a GI50 [45] of 14.9 µM and a TGI [45] of 27.5 µM. It also gave a GI50 [46] of 14.8 µM, a TGI [46] of 27.3 µM and a GI50 [47] of 16.7 µM. For the same compound, the TGI [47] was 31.1 µM, the GI50 [48] was 7.37 µM and the TGI [48] was 18.8 µM. For the same compound, the GI50 [49] was 13.4 µM, the TGI [49] was 25.4 µM and the GI50 [50] was 1.83 µM. For the same compound, the TGI [50] was 6.68 µM, the GI50 [51] was 6.38 µM and the TGI [51] was 29.5 µM. For the same compound, the GI50 [52] was 8.86 µM, the TGI [52] was 25.6 µM and the GI50 [53] was 13.9 µM. It also gave a TGI [53] of 26.6 µM, a GI50 [54] of 7.44 µM and a TGI [54] of 26.7 µM. For the same compound, the GI50 [55] was 15.7 µM, the TGI [55] was 32.2 µM and the GI50 [56] was 12.8 µM. For the same compound, the TGI [56] was 24.7 µM, the GI50 [57] was 6.05 µM and the TGI [57] was 18.5 µM.
With COc1ccc(C(=O)/C=C/c2ccc(Cl)c(Cl)c2)cc1S(N)(=O)=O the GI50 [1] was 1.62 µM, the TGI [1] was 3.11 µM and the GI50 [2] was 8.86 µM. The TGI [2] was 22.1 µM, the GI50 [3] was 2.17 µM and the TGI [3] was 10.5 µM. The GI50 [4] was 1.71 µM, the TGI [4] was 3.11 µM and the GI50 [5] was 1.63 µM. The TGI [5] was 3.33 µM, the GI50 [6] was 1.75 µM and the TGI [6] was 4.19 µM. It also gave a GI50 [7] of 2.7 µM, a TGI [7] of 7.95 µM and a GI50 [8] of 1.83 µM. It also gave a TGI [8] of 3.43 µM, a GI50 [9] of 3.5 µM and a TGI [9] of 12.8 µM. The GI50 [10] was 2.12 µM, the TGI [10] was 4.73 µM and the GI50 [11] was 1.4 µM. The TGI [11] was 2.71 µM, the GI50 [13] was 0.496 µM and the TGI [13] was 1.81 µM. It also gave a GI50 [14] of 1.88 µM, a TGI [14] of 6.31 µM and a GI50 [15] of 1.89 µM. The TGI [15] was 4.75 µM, the GI50 [58] was 2.29 µM and the TGI [58] was 7.31 µM. The GI50 [16] was 6.01 µM, the TGI [16] was 52 µM and the GI50 [17] was 1.46 µM. For the same compound, the TGI [17] was 2.77 µM, the GI50 [18] was 2 µM and the TGI [18] was 5.13 µM. For the same compound, the GI50 [19] was 2.03 µM, the TGI [19] was 10.8 µM and the GI50 [20] was 0.888 µM. It also gave a TGI [20] of 2.43 µM, a GI50 [21] of 0.653 µM and a TGI [21] of 1.93 µM. It also gave a GI50 [22] of 1.86 µM, a TGI [22] of 3.9 µM and a GI50 [23] of 2.15 µM. For the same compound, the TGI [23] was 5.17 µM, the GI50 [24] was 1.05 µM and the TGI [24] was 3.16 µM. For the same compound, the GI50 [25] was 1.99 µM, the TGI [25] was 4.11 µM and the GI50 [26] was 2.42 µM. For the same compound, the TGI [26] was 7.26 µM, the GI50 [27] was 1.47 µM and the TGI [27] was 2.98 µM. It also gave a GI50 [28] of 2.35 µM, a TGI [28] of 6.75 µM and a GI50 [29] of 3.04 µM. The TGI [29] was 13.4 µM, the GI50 [30] was 1.75 µM and the TGI [30] was 3.43 µM. The GI50 [31] was 2.72 µM, the TGI [31] was 8.22 µM and the GI50 [32] was 1.58 µM. It also gave a TGI [32] of 3.16 µM, a GI50 [33] of 2.25 µM and a TGI [33] of 5.93 µM. For the same compound, the GI50 [34] was 1.19 µM, the TGI [34] was 2.55 µM and the GI50 [35] was 1.6 µM. For the same compound, the TGI [35] was 2.97 µM, the GI50 [36] was 1.6 µM and the TGI [36] was 3.34 µM. For the same compound, the GI50 [37] was 2 µM, the TGI [37] was 5.75 µM and the GI50 [38] was 1.86 µM. For the same compound, the TGI [38] was 5.07 µM, the GI50 [39] was 1.67 µM and the TGI [39] was 5.96 µM. For the same compound, the GI50 [40] was 1.74 µM, the TGI [40] was 3.5 µM and the GI50 [41] was 2.91 µM. It also gave a TGI [41] of 11.9 µM, a GI50 [42] of 1.74 µM and a TGI [42] of 3.77 µM. The GI50 [43] was 1.67 µM, the TGI [43] was 3.25 µM and the GI50 [44] was 5.66 µM. For the same compound, the TGI [44] was 18.6 µM, the GI50 [45] was 1.75 µM and the TGI [45] was 3.26 µM. It also gave a GI50 [46] of 2.45 µM, a TGI [46] of 6.89 µM and a GI50 [47] of 5.53 µM. The TGI [47] was 18 µM, the GI50 [48] was 1.39 µM and the TGI [48] was 2.74 µM. The GI50 [49] was 1.88 µM, the TGI [49] was 4.21 µM and the GI50 [50] was 0.797 µM. For the same compound, the TGI [50] was 10.2 µM, the GI50 [51] was 1.34 µM and the TGI [51] was 3.52 µM. It also gave a GI50 [52] of 1.97 µM, a TGI [52] of 5.57 µM and a GI50 [53] of 2.02 µM. For the same compound, the TGI [53] was 5.89 µM, the GI50 [54] was 1.41 µM and the TGI [54] was 2.93 µM. The GI50 [55] was 2.5 µM, the TGI [55] was 8.99 µM and the GI50 [56] was 1.48 µM. For the same compound, the TGI [56] was 2.96 µM, the GI50 [57] was 1.27 µM and the TGI [57] was 2.52 µM.
